US20040006236A1, “Diaminopropionic acid derivatives” (priority 1999, published 2004)

Key:
[1] = tested on: cell-surface Mac-1 adhesion to immobilized fibrinogen (HL-60 cells); test: Mac-1/Fibrinogen cell-based screening assay; set-up: species or system human; conditions: Homo sapiens, HL-60, HL-60 cells; read-out: Mac-1/Fgn Cell based Assay IC50
Procedure: Cellular Mac-1/Fibrinogen antagonist activity, defined as the ability to inhibit cell-surface Mac-1 adhesion to immobilized fibrinogen, was quantitated by a cell based assay. Human fibrinogen was coated onto 96 well microtiter plates (1 μg in 100 μL TBS) overnight at 4° C. The plates were then blocked with 150 μL of 10% polyvinyl pyrrolidone (PVP) in TBS for 1 h at 37° C. Plates were washed 3 times (150 μL each) with TBS. […] A ten-fold excess of volume of the same buffer was added and cells were centrifuged. The medium was decanted and cells were resuspended at a concentration of 2×10^6 cells/mL in RPMI/0.05% BSA/0.2 mM MnCl2. Stock solutions (10 mM in DMSO) of test compounds were diluted to 2.5 mM with DMSO. […] Each sample was further diluted 50-fold with RPMI/0.05% BSA/0.2 mM MnCl2. Equal volumes of labeled cells were then added to assay tubes containing diluted compounds. […] Cells were incubated for 10 min at 37° C. with gentle shaking, then dispensed (100 μL per well) onto fibrinogen coated plates and incubated for 30 min at 37° C./5% CO2. Unbound cells were gently washed with TBS two times.

[2] = target: T1, LFA-1 binding to immobilized ICAM-1 (Homo sapiens, UniProt P05107+P20701); test: LFA-1/ICAM-1 protein-protein assay (solid-phase ELISA); conditions: read-out: LFA-1/ICAM-1 Protein-Protein Assay IC50
T1 construct: made in house; host or cells: transfected 293 cells (LFA-1)
Procedure: (a) LFA-1/ICAM-1 screening test: LFA-1/ICAM-1 antagonist activity, defined as the ability of compounds of the invention to block LFA-1 binding to immobilized ICAM-1, was quantitated using a solid-phase ELISA.
(§1) Typically, fusion protein consisting of the entire extracellular domain of human ICAM-1 and the Fc domain of human IgG (5dICAM-Ig) was coated onto 96-well microtiter plates (0.15 μg in 100 μL PBS) overnight at 4° C. The plates were then blocked with 150 μL of 1% BSA/1 mM MnCl2/0.14 M NaCl/20 mM HEPES, pH 7.2 for 1 h at 37° C. and washed 3 times (150 μL each) with Wash Buffer (50 mM Tris, pH 7.4/100 mM NaCl/1 mM MnCl2/0.05% Tween 20). Stock solutions (100 μM in 100% DMSO) of test compounds were diluted 50 fold with 150 μL of Binding Buffer (0.05% BSA/0.05% Tween 20/1 mM MnCl2/0.14 M NaCl/20 mM HEPES, pH 7.2) plus 10% DMSO. […] Fifty μL per well of each dilution was added to the ICAM-1 coated plates, followed by 50 μL per well of membrane-bound LFA-1 (280 ng/mL in Binding Buffer) derived from transfected 293 cells. The plates were shaken vigorously for 1 min (room temperature) and gently for 2 h (37° C.). After incubation, the plates were washed 3 times (150 μL each) with Wash Buffer. Mouse anti-human integrin β2 monoclonal antibody was added (100 μL/well, 1 μg/mL in Binding Buffer) and allowed to incubate for 1 h (37° C.) with gentle agitation. The plates were then washed 3 times with Wash Buffer. HRP-conjugated goat anti-mouse IgG (100 μL/well, 1:1500 dilution in Binding Buffer) was added to each well, followed by incubation for 1 h (37° C.), and concluded by three washes (150 μL each) with Wash Buffer. TMB solution (100 μL per well) was added for color development (10 min). The reaction was stopped by the addition of 100 μL of 1 M H3PO4 to each well. The plates were then read at 450 nm. The inhibitory activities of test compounds were determined by the IC50s.
as §1, with “LFA-1/ICAM-1 antagonist activity, defined as the ability to block LFA-1 binding to immobilized ICAM-1, was quantitated using a solid-phase ELISA. Typically,” for “Typically,”, “(0.05 %” for “(0.05%”, “nm.” for “nm. The inhibitory activities of test compounds were determined by the IC50s.”

[3] = target: T2, ICAM-1 binding to immobilized Mac-1 (Homo sapiens, UniProt P05107+P11215); test: Mac-1/ICAM-1 screening assay (solid-phase ELISA); conditions: read-out: Mac-1/ICAM-1 Protein-Protein Assay IC50
T2 construct: made in house; host or cells: transfected 293 cells (Mac-1)
Procedure: (b) Mac-1/ICAM-1 screening test: Mac-1/ICAM-1 antagonist activity, defined as the ability to compete with ICAM-1 binding to immobilized Mac-1, was quantitated by a solid-phase ELISA.
(§2) Membrane-bound Mac-1 derived from transfected 293 cells was coated onto 96-well microtiter plates (50 μL/well, 3 μg/mL Mac-1 in 20 mM Hepes, pH 7.2/0.14 M NaCl/1 mM MnCl2) overnight at 4° C. The plates were blocked with 100 μL/well of 0.5% BSA in 20 mM Hepes, pH 7.2/0.14 M NaCl/1 mM MnCl2 at 37° C. for 1 h and washed 3 times (120 μL each) with Binding Buffer (20 mM Hepes, pH 7.2/0.14 M NaCl/1 mM MnCl2/0.05% Tween 20). Test compounds were dissolved in 100% DMSO and diluted 1:50 in Binding Buffer plus 10% DMSO. A series of 1:4 dilutions were performed for each compound (concentration range, 0.12 nM-20 μM). Each dilution (25 μL/well) was added to the plates, followed by 25 μL/well of 5 dICAM-Ig (40 μg/mL in Binding Buffer). The plates were shaken vigorously for 1 min (room temperature), followed by gentle agitation for 2 h (37° C.), and washed with Binding Buffer (3 times, 120 μL each). HRP-conjugated goat anti-human IgG(Fc-specific) antibody (0.125 μg/mL in Binding Buffer plus 0.05% BSA) was added to each well (50 μL/well), followed by incubation for 1 h at 37° C. The plates were then washed 3 times with Binding Buffer (120 μL each). TMB solution (100 μL/well) was added to each well for color development for 10 min. The reaction was stopped with 1 M H3PO4 (100 μL/well) and the plates were read at 450 nm. The inhibitory activities of test compounds were determined by the IC50s.
as §2, with “Mac-1/ICAM-1 antagonist activity, defined as the ability to compete with ICAM-1 binding to immobilized Mac-1, was quantitated by a solid-phase ELISA. Membrane-bound” for “Membrane-bound”, “5dICAM-Ig” for “5 dICAM-Ig”, “nm.” for “nm. The inhibitory activities of test compounds were determined by the IC50s.”

T1 sequence (P20701 26-1170): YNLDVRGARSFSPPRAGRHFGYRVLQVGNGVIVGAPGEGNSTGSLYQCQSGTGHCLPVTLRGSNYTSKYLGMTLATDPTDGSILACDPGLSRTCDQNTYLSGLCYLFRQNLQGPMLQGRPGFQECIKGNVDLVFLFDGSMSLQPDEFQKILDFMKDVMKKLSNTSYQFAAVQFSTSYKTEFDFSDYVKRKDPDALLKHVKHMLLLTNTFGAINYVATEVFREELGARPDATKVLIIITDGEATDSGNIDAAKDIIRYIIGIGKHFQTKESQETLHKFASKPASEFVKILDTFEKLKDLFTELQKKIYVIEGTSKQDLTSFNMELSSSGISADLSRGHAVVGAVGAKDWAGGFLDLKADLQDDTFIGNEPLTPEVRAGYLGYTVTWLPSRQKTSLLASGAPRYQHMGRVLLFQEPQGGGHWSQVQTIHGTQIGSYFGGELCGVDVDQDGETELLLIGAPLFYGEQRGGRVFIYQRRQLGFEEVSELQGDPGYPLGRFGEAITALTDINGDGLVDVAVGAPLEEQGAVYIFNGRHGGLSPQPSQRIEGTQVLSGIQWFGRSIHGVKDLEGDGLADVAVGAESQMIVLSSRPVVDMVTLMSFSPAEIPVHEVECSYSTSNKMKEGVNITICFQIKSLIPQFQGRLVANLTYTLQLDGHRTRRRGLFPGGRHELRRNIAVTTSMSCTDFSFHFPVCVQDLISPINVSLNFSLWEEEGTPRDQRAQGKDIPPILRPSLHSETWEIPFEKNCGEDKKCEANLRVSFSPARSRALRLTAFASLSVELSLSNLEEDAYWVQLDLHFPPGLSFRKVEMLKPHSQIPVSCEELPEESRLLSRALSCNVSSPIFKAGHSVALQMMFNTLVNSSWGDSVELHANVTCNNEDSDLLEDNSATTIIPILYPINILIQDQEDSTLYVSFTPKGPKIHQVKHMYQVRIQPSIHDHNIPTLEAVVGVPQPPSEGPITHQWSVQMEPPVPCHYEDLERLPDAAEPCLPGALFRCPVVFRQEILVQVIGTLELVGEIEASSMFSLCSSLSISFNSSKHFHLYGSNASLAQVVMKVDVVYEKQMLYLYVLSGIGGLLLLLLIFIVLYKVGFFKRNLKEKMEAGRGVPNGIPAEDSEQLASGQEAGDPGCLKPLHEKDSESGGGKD
T1 sequence (P05107 23-769): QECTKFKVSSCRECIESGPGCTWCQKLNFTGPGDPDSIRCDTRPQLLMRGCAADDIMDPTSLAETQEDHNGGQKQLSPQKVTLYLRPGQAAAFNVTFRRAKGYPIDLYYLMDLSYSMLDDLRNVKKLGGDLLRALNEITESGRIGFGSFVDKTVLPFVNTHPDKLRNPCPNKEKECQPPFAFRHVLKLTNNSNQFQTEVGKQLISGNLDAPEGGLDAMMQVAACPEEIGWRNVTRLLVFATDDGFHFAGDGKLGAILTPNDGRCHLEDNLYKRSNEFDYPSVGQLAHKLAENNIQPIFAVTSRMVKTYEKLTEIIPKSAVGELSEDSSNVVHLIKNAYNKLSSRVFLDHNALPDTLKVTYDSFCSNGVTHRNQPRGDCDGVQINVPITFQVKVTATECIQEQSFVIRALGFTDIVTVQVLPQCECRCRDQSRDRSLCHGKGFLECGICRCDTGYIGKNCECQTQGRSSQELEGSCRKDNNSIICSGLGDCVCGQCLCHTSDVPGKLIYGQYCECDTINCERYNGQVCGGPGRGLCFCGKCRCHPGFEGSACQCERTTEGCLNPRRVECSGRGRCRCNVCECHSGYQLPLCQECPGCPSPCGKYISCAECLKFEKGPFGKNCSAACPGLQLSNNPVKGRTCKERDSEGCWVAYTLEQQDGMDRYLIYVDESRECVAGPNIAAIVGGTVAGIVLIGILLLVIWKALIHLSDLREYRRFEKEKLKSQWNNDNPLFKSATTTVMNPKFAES
T2 sequence (P05107 23-769, other chains not shown): as the sequence (P05107 23-769) above

| Compound | IC50 [1] | IC50 [2] | IC50 [3] |
| --- | --- | --- | --- |
| O=C(NCc1cccc(O)c1)c1ccc(C(=O)N[C@@H](CNC(=O)c2cc([N+](=O)[O-])[nH]n2)C(=O)O)c(Cl)c1 [Example 152] | 1220 nM | – | – |
| O=C(NCc1cccc(O)c1)c1ccc(C(=O)N[C@@H](CNC(=O)c2ccc3ccccc3n2)C(=O)O)c(Cl)c1 [Example 181] | – | 12 nM | 176 nM |
| O=C(NCc1cccc(O)c1)c1ccc(C(=O)N[C@@H](CNC(=O)c2cc3ccccc3oc2=O)C(=O)O)c(Cl)c1 [Example 188] | – | 3.4 nM | 146 nM |
| O=C(NCc1cccc(O)c1)c1ccc(C(=O)N[C@@H](CNC(=O)c2c3ccccc3cc3ccccc23)C(=O)O)c(Cl)c1 [Example 189] | – | 18 nM | 1050 nM |
| O=C(NC[C@H](NC(=O)c1c(F)cccc1Cl)C(=O)O)c1ccccc1 [Example 220] | – | 14 nM | 304 nM |
| O=C(COc1ccccc1)c1ccc(C(=O)N[C@@H](CNC(=O)c2cccs2)C(=O)O)c(Cl)c1 [Example 376, N-[2-chloro-4-(phenoxyacetyl)benzoyl]-3-(thiophene-2-carbonyl)amino-L-alanine] | – | 37 nM | 152 nM |

Continued by falling IC50 [2], values first:

| IC50 [1] | IC50 [2] | IC50 [3] | Compound |
| --- | --- | --- | --- |
| – | 3.4 nM | 91 nM | O=C(NCc1cccc(O)c1)c1ccc(C(=O)N[C@@H](CNC(=O)c2cc3ccccc3o2)C(=O)O)c(Cl)c1 [Example 174] |
| – | 2.5 nM | 91 nM | O=C(NCc1cccc(O)c1)c1ccc(C(=O)N[C@@H](CNC(=O)c2ccnc3ccccc23)C(=O)O)c(Cl)c1 [Example 184] |
| – | 2.2 nM | 130 nM | COc1ccc2nc3ccc(C(=O)NC[C@H](NC(=O)c4ccc(C(=O)NCc5cccc(O)c5)cc4Cl)C(=O)O)cn3c(=O)c2c1 [Example 191] |
| – | 1.6 nM | 167 nM | O=C(NCc1cccc(O)c1)c1ccc(C(=O)N[C@@H](CNC(=O)c2nc3ccccc3nc2O)C(=O)O)c(Cl)c1 [Example 186] |
| – | 1.3 nM | 187 nM | O=C(NCc1cccc(O)c1)c1ccc(C(=O)N[C@@H](CNC(=O)c2cnnc3ccccc23)C(=O)O)c(Cl)c1 [Example 185] |
| – | 1.2 nM | 54 nM | O=C(NCc1cccc(O)c1)c1ccc(C(=O)N[C@@H](CNC(=O)c2ccc3[nH]cnc3c2)C(=O)O)c(Cl)c1 [Example 176] |
| – | 0.6 nM | 36 nM | O=C(NCc1cccc(O)c1)c1ccc(C(=O)N[C@@H](CNC(=O)c2cc(=O)[nH]c(=O)[nH]2)C(=O)O)c(Cl)c1 [Example 173] |
| – | 0.6 nM | 48 nM | O=C(NCc1cccc(O)c1)c1ccc(C(=O)N[C@@H](CNC(=O)c2nccc3ccccc23)C(=O)O)c(Cl)c1 [Example 180] |
